Measured values as given in patent US20210401880A1, “Pharmaceutical Composition For Preventing Or Treating Obesity, Containing CYCLO(HIS-PRO) As Active Ingredient” (Novmetapharma Co., Ltd., priority 2018, published 2021).

How the values were obtained:
Format in all cases: in vivo, human
[1] = system: patients with type 2 diabetes mellitus; experiment: Clinical trial: evaluation of safety; conditions: CHP administration groups (3, 9, 15 mg of CHP+23 mg of zinc once a day, 12 weeks) vs placebo
Protocol: (§1) We conducted a clinical trial designed as randomized, placebo-controlled, double-blind, and two-way crossover on drug interaction in patients with type 2 diabetes mellitus. The clinical trial was conducted for 149 patients over a total of 16 weeks, in which the screening period was 2 weeks, the treatment period was 12 weeks, and the period of the evaluation of safety and follow-up was 2 weeks.
(§2) In the screening stage, 64 subjects were selected from 149 participants, and the subjects who met the selection criteria were fasted for 2 hours before and after breakfast each day and subjected to a 2-week evaluation process of measuring and recording blood glucose levels. In the treatment stage, capsules containing placebo or CHP with different doses were randomly administered to 64 selected subjects once a day for 12 consecutive weeks.
In the above experiment, a capsule containing CHP with a different dose or a placebo corresponding thereto was used, and each subject received a two-week dose (18 capsules=14+4) at one visit and was instructed to take 1 capsule before bedtime every day. In this case, the anti-diabetic drugs and other prescribed drugs currently being used were continuously taken. […]

[2] = system: glycated hemoglobin (HbA1c); experiment: Clinical trial: change in concentration of glycated hemoglobin (HbA1c) over 12 weeks
Protocol: as §1, §2
(§3) In the above experiment, a capsule containing CHP with a different dose or a placebo corresponding thereto was used, and each subject received a two-week dose (18 capsules=14+4) at one visit and was instructed to take 1 capsule before bedtime every day. In this case, the anti-diabetic drugs and other prescribed drugs currently being used were continuously taken. Each subject was assigned at the same rate as follows and administered with a placebo or a compound with a different dose, respectively. • Administration Group A: 3 mg of CHP+23 mg of zinc—16 subjects • Administration Group B: 9 mg of CHP+23 mg of zinc—16 subjects • Administration Group C: 15 mg of CHP+23 mg of zinc—16 subjects • Administration Group D: placebo (control)—16 subjects
The present inventors observed the change in concentration of HbA1c during the 12-week dosing period. Since the blood glucose level measured at one time point can change due to various factors, the change in glycated hemoglobin (HbA1c) was checked for the purpose of determining the pattern of long-term glycemic control, and the results are shown in Table 1 and FIG. 1.

leptin = experiment: Clinical trial: plasma leptin level (leptin resistance)
Protocol: as §1, §2, §3
(§4) The present inventors confirmed the improvement of body mass index (BMI) and the improvement of leptin resistance, and the results are shown in Tables 3 and 4.
Leptin is an appetite suppressing protein secreted from adipose cells, and is known as a hormone to act on the brain after being secreted from adipose tissue to suppress appetite and activate metabolism in the body, thereby reducing body weight. In the case of humans, the more obese people (the more adipose tissue), the higher the concentration of leptin in the blood. This indicates the resistance to leptin action.

[3] = Clinical trial: improvement of body mass index (BMI)
Protocol: as §1, §2, §3, §4

[4] = Clinical trial: change in body weight over 12 weeks
Protocol: as §1, §2, §3
The present inventors observed the change in body weight of subjects through the 12-week experiment, and the results are shown in Table 2 and FIG. 2.

[5] = Administration Group A: 3 mg of CHP+23 mg of zinc once a day
[6] = Administration Group A: 3 mg of CHP+23 mg of zinc once a day, Week 12
[7] = Administration Group B: 9 mg of CHP+23 mg of zinc once a day
[8] = Administration Group B: 9 mg of CHP+23 mg of zinc once a day, Baseline (Week 0)
[9] = Administration Group B: 9 mg of CHP+23 mg of zinc once a day, Week 12
[10] = Administration Group C: 15 mg of CHP+23 mg of zinc once a day
[11] = Administration Group C: 15 mg of CHP+23 mg of zinc once a day, Baseline (Week 0)
[12] = Administration Group C: 15 mg of CHP+23 mg of zinc once a day, Week 12
[13] = all patient groups receiving CHP (3, 9, 15 mg+23 mg of zinc), 12 weeks
[14] = Administration Group A: 3 mg of CHP+23 mg of zinc once a day, Baseline (Week 0)

For `O=C1NC(Cc2c[nH]cn2)C(=O)N2CCCC12` (centres unmarked) [CHP, cyclo(his-pro)], the “side effects (evaluation of safety)” value [1] was “mild and moderate side effects that are not related to the CHP were observed”, the “HbA1c, Change Value (From Week 0 to Week 12), Average” value (shortened to “HbA1c, Change Value”) [2, 5] was −0.21% and the “level of HbA1c at week 12 versus Administration Group D (control)” value [2, 5] was “lower than that of Administration Group D”. The “HbA1c, Average” value ([2]; Administration Group A: 3 mg of CHP+23 mg of zinc once a day, Baseline (Week 0), type 2 diabetes patients) was 8.25%, the “HbA1c, Average” value [2, 6] was 8.04% and the “HbA1c, Change Value” value [2, 7] was −0.17%. For the same compound, the “level of HbA1c at week 12 versus Administration Group D (control)” value [2, 7] was “lower than that of Administration Group D”, the “HbA1c, Average” value [2, 8] was 8.06% and the “HbA1c, Average” value [2, 9] was 7.90%. The “HbA1c, Change Value” value [2, 10] was −0.43%, the “level of HbA1c over time (FIG. 1)” value [2, 10] was “reduced consistently until week 8” and the “HbA1c, Average” value [2, 11] was 8.49%. For the same compound, the “HbA1c, Average” value [2, 12] was 8.08%, the “level of HbA1c compared to the control” value [2, 13] was “reduced compared to the control” and the “Plasma leptin level, Change Value (From Week 0 to Week 12), Average” value (“Plasma leptin level, Change Value” for short) (leptin; [5]) was 0.59. For the same compound, the “Plasma leptin level, Average” value (leptin; [14]) was 10.93, the “Plasma leptin level, Average” value (leptin; [6]) was 9.66 and the “Plasma leptin level, Change Value” value (leptin; [7]) was −3.42. For the same compound, the “plasma leptin level at week 12 compared to the reference value” (leptin; [7]) was “reduced to a statistically significant level”, the “Plasma leptin level, Average” value (leptin; [8]) was 19.85 and the “Plasma leptin level, Average” value (leptin; [9]) was 9.90. The “Plasma leptin level, Change Value” value (leptin; [10]) was −3.39, the “plasma leptin level at week 12 compared to the reference value” (leptin; [10]) was “reduced to a statistically significant level” and the “Plasma leptin level, Average” value (leptin; [11]) was 12.93. For the same compound, the “Plasma leptin level, Average” value (leptin; [12]) was 10.59, the “Body mass index (BMI), Change Value (From Week 0 to Week 12), Average” value (from here on “Body mass index (BMI), Change Value”) [3, 5] was −0.27 kg/m^2 and the “Body mass index (BMI), Average” value [3, 14] was 37.18 kg/m^2. For the same compound, the “Body mass index (BMI), Average” value [3, 6] was 36.45 kg/m^2, the “Body mass index (BMI), Change Value” value [3, 7] was 0.16 kg/m^2 and the “Body mass index (BMI), Average” value [3, 8] was 36.29 kg/m^2. For the same compound, the “Body mass index (BMI), Average” value [3, 9] was 36.59 kg/m^2, the “Body mass index (BMI), Change Value” value [3, 10] was −0.28 kg/m^2 and the “Body mass index (BMI), Average” value [3, 11] was 37.23 kg/m^2. For the same compound, the “Body mass index (BMI), Average” value [3, 12] was 37.48 kg/m^2, the “Body weight, Change Value (From Week 0 to Week 12), Average” value [4, 5] was -0.73 kg and the “Body weight, Average” value [4, 14] was 109.11 kg. The “Body weight, Average” value [4, 6] was 108.28 kg, the “Body weight, Average” value [4, 8] was 103.56 kg and the “Body weight, Average” value [4, 9] was 105.19 kg. For the same compound, the “Body weight, Change Value (From Week 0 to Week 12), Average” value [4, 10] was -0.92 kg, the “body weight over time (FIG. 2)” value [4, 10] was “reduced consistently until week 12” and the “Body weight, Average” value [4, 11] was 103.94 kg. The “Body weight, Average” value [4, 12] was 104.12 kg and the “weight gain / body weight compared to the control” value [4, 13] was “less than the control, or the body weight was reduced”.
